Earlier results on two molecules are cited in article PMC13515262 (Molecules, 2026).

As usually defined, the Ki is the dissociation constant of the complex between target and ligand, obtained from inhibition or displacement.

This series deals with T1, AChE (Electrophorus electricus, UniProt O42275).
T1 construct: The reaction was carried out using AChE serum obtained from the electric eel; from tissue; host or cells: 'serum' of the electric eel (so in the source)
To be noted: ref 39 (CAPE), 35 (Spiraeoside), 43 (olivetol), 36 (Vescalagin), 34 (Magnofluorine), 40 (taxifolin), 33 (coumestrol); read-out: Ki AChE (literature).

T1 sequence (O42275 24-633): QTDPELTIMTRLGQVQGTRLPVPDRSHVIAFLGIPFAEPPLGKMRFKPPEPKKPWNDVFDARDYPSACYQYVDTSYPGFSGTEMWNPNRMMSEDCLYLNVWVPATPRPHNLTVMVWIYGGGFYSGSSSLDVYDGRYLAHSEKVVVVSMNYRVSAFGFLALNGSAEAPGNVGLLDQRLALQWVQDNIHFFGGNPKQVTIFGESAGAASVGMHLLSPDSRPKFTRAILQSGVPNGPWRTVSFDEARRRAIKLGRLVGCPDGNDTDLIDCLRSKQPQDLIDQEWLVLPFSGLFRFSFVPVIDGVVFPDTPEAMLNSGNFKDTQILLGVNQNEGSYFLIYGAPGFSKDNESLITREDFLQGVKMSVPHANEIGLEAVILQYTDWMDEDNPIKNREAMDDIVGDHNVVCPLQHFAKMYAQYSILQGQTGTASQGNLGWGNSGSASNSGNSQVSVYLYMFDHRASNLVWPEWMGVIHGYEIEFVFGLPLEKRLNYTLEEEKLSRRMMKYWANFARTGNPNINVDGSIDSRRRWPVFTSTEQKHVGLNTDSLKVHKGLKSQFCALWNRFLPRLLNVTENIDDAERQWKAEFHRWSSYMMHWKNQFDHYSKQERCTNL

With `O=C(/C=C/c1ccc(O)c(O)c1)OCCc1ccccc1` [CAPE, caffeic acid phenethyl ester], the Ki is 0.518 nM.

As to `O=c1c(O)c(-c2ccc(O[C@@H]3O[C@H](CO)[C@@H](O)[C@H](O)[C@H]3O)c(O)c2)oc2cc(O)cc(O)c12` [Spiraeoside], the Ki was 3.4 nM.
